Data: article PMC8764084, “Pantothenate biosynthesis is critical for chronic infection by the neurotropic parasite Toxoplasma gondii” (Nature Communications, 2022)

Molecular target: T1, PBAL (pantoate β-alanine ligase; Pan synthetase) (Toxoplasma gondii, UniProt S8EZ77)
T1 construct: gene TGME49_265870; native full-length enzyme in live tachyzoites, untagged; about 88 kDa; nuclear; compared with pbal-ko
Assay: LC-MS isotope labelling of pantothenate in live parasites, RH versus pbal-ko
Format: cell-based
Details: 0.8 mM pantoate with 0.8 mM 13C3/15N-beta-alanine, medium without Pan, 40 h, intact parasites in HFF

T1 sequence (S8EZ77 entry or part of it): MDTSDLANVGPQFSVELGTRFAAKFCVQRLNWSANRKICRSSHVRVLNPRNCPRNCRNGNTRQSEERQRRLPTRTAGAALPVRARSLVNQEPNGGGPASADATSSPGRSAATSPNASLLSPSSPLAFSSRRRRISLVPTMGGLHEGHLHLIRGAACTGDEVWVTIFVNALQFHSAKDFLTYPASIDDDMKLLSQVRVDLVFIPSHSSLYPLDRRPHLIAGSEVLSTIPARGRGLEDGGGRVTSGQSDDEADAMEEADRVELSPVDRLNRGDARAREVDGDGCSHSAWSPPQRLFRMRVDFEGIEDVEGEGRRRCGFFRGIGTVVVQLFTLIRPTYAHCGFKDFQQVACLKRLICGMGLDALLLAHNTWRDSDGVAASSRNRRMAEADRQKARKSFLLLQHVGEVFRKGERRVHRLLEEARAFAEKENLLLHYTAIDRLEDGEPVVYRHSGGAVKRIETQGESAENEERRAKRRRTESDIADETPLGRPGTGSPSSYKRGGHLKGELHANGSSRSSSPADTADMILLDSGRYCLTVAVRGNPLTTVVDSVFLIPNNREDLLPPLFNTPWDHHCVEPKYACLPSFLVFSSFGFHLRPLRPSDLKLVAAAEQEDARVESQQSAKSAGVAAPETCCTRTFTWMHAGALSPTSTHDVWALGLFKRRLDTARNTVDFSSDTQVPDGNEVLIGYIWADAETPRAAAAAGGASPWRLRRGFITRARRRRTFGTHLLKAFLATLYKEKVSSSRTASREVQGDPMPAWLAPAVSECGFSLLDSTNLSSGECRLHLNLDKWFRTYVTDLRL

| Structure (SMILES) | LC-MS isotope labelling of pantothenate in live parasites, RH versus pbal-ko | LC-MS isotope labelling of pantothenate in live parasites, RH versus pbal-ko (labelled compound) |
| --- | --- | --- |
| CC(C)(CO)[C@@H](O)C(=O)O [pantoate] | led to the formation of labeled Pan in all strains except pbal-ko |  |
| NCCC(=O)O [13C3/15N-β-Ala] |  | led to the formation of labeled Pan in all strains except pbal-ko |
